The target of assay [1] is human orexin receptor 1 (Homo sapiens (Human), UniProt O43613). Nature of the assay: Orexin antagonist activity, intracellular calcium FLIPR assay, RBL-2H3 cells expressing human orexin receptor 1. The assay is classed as cell-based. The note with it: RBL-2H3 cells stably expressing human orexin receptor 1; orexin-A at approx. 80% maximal response; compound added 15 minutes before; read-out: Human Orexin1R IC50.

Assay [2] addresses human orexin receptor 2 (Homo sapiens (Human), UniProt O43614). Nature of the assay: Orexin antagonist activity, intracellular calcium FLIPR assay, RBL-2H3 cells expressing human orexin receptor 2. The assay is classed as cell-based. The settings on record: RBL-2H3 cells stably expressing human orexin receptor 2; orexin-A at approx. 80% maximal response; compound added 15 minutes before; read-out: Human Orexin2R IC50. A general note: Calcium assays in cells follow changes in intracellular calcium, usually with a dye or a luminescent sensor.

Sequence of human orexin receptor 2 (O43614 whole entry): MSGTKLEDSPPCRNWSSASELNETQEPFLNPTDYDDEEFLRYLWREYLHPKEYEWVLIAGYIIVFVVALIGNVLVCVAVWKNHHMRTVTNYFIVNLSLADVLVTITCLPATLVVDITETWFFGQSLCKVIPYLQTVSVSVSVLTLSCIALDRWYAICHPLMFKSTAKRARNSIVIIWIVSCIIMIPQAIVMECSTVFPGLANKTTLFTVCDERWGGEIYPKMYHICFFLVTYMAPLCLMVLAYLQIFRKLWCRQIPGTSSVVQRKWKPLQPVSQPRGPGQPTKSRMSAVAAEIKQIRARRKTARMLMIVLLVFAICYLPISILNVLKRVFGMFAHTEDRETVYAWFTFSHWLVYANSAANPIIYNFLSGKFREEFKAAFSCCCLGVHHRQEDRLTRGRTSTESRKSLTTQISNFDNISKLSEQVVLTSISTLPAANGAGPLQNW
Sequence of human orexin receptor 1 (O43613 whole entry): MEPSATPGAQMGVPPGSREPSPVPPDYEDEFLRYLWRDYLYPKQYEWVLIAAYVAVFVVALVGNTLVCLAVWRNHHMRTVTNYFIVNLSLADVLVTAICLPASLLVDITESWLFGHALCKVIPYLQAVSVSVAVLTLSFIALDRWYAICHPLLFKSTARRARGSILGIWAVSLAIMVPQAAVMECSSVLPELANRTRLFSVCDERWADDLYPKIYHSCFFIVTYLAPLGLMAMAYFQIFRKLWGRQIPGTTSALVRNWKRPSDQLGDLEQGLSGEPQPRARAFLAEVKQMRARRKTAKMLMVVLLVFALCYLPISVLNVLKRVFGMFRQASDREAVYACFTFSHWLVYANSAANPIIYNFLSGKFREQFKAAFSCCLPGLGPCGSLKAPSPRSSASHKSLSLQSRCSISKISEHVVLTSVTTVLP

A word on the IC50: it is the concentration needed to halve the response being measured. For the compound `O=C(N[C@H]1CCC[C@@H]1Nc1ncc(C(F)(F)F)cc1F)c1ccccc1-n1nccn1` [Example 105, N-[(1S,2S)-2-{[3-Fluoro-5-(trifluoromethyl)pyridin-2-yl]amino}cyclopentyl]-2-(2H-1,2,3-triazol-2-yl)benzamide], the 50% inhibitory concentration (IC50) is 39 nM in assay [1] and over 10000 nM in assay [2].
As for `O=C(N[C@H]1CCC[C@@H]1Nc1ncc(C(F)(F)F)cc1F)c1cc(F)ccc1-c1ncccn1` [Example 139, 5-Fluoro-N-[(1S,2S)-2-{[3-fluoro-5-(trifluoromethyl)pyridin-2-yl]amino}cyclopentyl]-2-(pyrimidin-2-yl)benzamide], the concentration for half-maximal inhibition (IC50) is 32 nM in assay [1] and over 10000 nM in assay [2].
In the same order, the values of `Cc1noc(-c2ccccc2C(=O)N[C@H]2CCC[C@@H]2Nc2ncc(C(F)(F)F)nc2C)n1` [Example 141, 2-(3-Methyl-1,2,4-oxadiazol-5-yl)-N-[(1S,2S)-2-{[3-methyl-5-(trifluoromethyl)pyrazin-2-yl]amino}cyclopentyl]benzamide] are 62 nM and over 10000 nM.
In the same order, the values of `O=C(N[C@H]1CCC[C@@H]1Nc1ccc(C(F)(F)F)cn1)c1ccccc1-n1cccn1` [Example 11, 2-(1H-Pyrazol-1-yl)-N-[(1S,2S)-2-{[5-(trifluoromethyl)pyridin-2-yl]amino}cyclopentyl]benzamide] are 170 nM and over 10000 nM.
As to `Cc1cc(C(F)(F)F)cnc1N[C@H]1CCC[C@@H]1NC(=O)c1ccccc1-n1nccn1` [Example 108, N-[(1S,2S)-2-{[3-Methyl-5-(trifluoromethyl)pyridin-2-yl]amino}cyclopentyl]-2-(2H-1,2,3-triazol-2-yl)benzamide], the IC50 in assay [1] is 24 nM; in assay [2] it was over 10000 nM.
In the same order, the values of `O=C(N[C@H]1CCC[C@@H]1Nc1cnc(C2CC2)cn1)c1ccccc1-n1nccn1` [Example 112, N-[(1S,2S)-2-[(5-Cyclopropylpyrazin-2-yl)amino]cyclopentyl]-2-(2H-1,2,3-triazol-2-yl)benzamide] are 476 nM and over 10000 nM.
Take `O=C(N[C@H]1CCC[C@@H]1Nc1ccc(C(F)(F)F)cn1)c1cc(F)ccc1-c1ncccn1` [Example 14, 5-Fluoro-2-(pyrimidin-2-yl)-N-[(1S,2S)-2-{[5-(trifluoromethyl)pyridin-2-yl]amino}cyclopentyl]benzamide]: the figures for the IC50 in assay [1] and in assay [2] were 89 nM and over 10000 nM, respectively.
In the case of `O=C(N[C@H]1CCC[C@@H]1Nc1cnc(C(F)(F)F)cn1)c1ncccc1N1CCCCC1` [Example 51, 3-(Piperidin-1-yl)-N-[(1S,2S)-2-{[5-(trifluoromethyl)pyrazin-2-yl]amino}cyclopentyl]pyridine-2-carboxamide], the IC50 in assay [1] was 301 nM; in assay [2] it was over 10000 nM.
In the same order, the values of `C[C@]1(Nc2cnc(C(F)(F)F)cn2)CCC[C@@H]1NC(=O)c1c(Cl)cccc1-n1nccn1` [Example 87, 2-Chloro-N-[(1S,2S)-2-methyl-2-{[5-(trifluoromethyl)pyrazin-2-yl]amino}cyclopentyl]-6-(2H-1,2,3-triazol-2-yl)benzamide] are 8 nM and over 10000 nM.
In the same order, the values of `CCc1nc(C(F)(F)F)cnc1N[C@H]1CCC[C@@H]1NC(=O)c1ccccc1-c1nc(C)no1` [Example 149, N-[(1S,2S)-2-{[3-Ethyl-5-(trifluoromethyl)pyrazin-2-yl]amino}cyclopentyl]-2-(3-methyl-1,2,4-oxadiazol-5-yl)benzamide] are 25 nM and over 10000 nM.
For `CCOc1cccnc1C(=O)N[C@H]1CCC[C@@H]1Nc1cnc(C(F)(F)F)cn1` [Example 60, 3-Ethoxy-N-[(1S,2S)-2-{[5-(trifluoromethyl)pyrazin-2-yl]amino}cyclopentyl]pyridine-2-carboxamide], the values for the 50% inhibitory concentration (IC50) in assay [1] and in assay [2] were 852 nM and over 10000 nM, respectively.
For the compound `O=C(N[C@H]1CCC[C@@H]1Nc1cnc(C(F)(F)F)cn1)c1cc(C(F)(F)F)ccc1-n1nccn1` [Example 45, 2-(2H-1,2,3-Triazol-2-yl)-5-(trifluoromethyl)-N-[(1S,2S)-2-{[5-(trifluoromethyl)pyrazin-2-yl]amino}cyclopentyl]benzamide], the values for the IC50 in assay [1] and in assay [2] were 241 nM and over 10000 nM, respectively.
Turning to `O=C(N[C@H]1CCC[C@@H]1Nc1cnc(C(F)(F)F)cn1)c1ncccc1Br` [Example 28, 3-Bromo-N-[(1S,2S)-2-{[5-(trifluoromethyl)pyrazin-2-yl]amino}cyclopentyl]pyridine-2-carboxamide], the 50% inhibitory concentration (IC50) is 776 nM in assay [1] and over 10000 nM in assay [2].
The corresponding values for `COc1cccc(F)c1C(=O)N[C@H]1CCC[C@@H]1Nc1ccc(C(F)(F)F)cn1` [Example 71, 2-Fluoro-6-methoxy-N-[(1S,2S)-2-{[5-(trifluoromethyl)pyridin-2-yl]amino}cyclopentyl]benzamide] are 722 nM and 7600 nM.
The corresponding values for `O=C(N[C@H]1CCC[C@@H]1Nc1ncc(C(F)(F)F)cc1F)c1ncccc1-n1nccn1` [Example 123, N-[(1S,2S)-2-{[3-Fluoro-5-(trifluoromethyl)pyridin-2-yl]amino}cyclopentyl]-3-(2H-1,2,3-triazol-2-yl)pyridine-2-carboxamide] are 18 nM and over 10000 nM.
In the same order, the values of `C[C@]1(Nc2cnc(C(F)(F)F)cn2)CCC[C@@H]1NC(=O)c1ncccc1-c1ncccn1` [Example 144, N-[(1S,2S)-2-Methyl-2-{[5-(trifluoromethyl)pyrazin-2-yl]amino}cyclopentyl]-3-(pyrimidin-2-yl)pyridine-2-carboxamide] are 13 nM and over 10000 nM.
With `O=C(N[C@H]1CCC[C@@H]1Nc1ncc(C(F)(F)F)cc1F)c1ncccc1-c1ncccn1` [Example 147, N-[(1S,2S)-2-{[3-Fluoro-5-(trifluoromethyl)pyridin-2-yl]amino}cyclopentyl]-3-(pyrimidin-2-yl)pyridine-2-carboxamide], the IC50 is 24 nM in assay [1] and over 10000 nM in assay [2].
As to `Cc1noc(-c2ccccc2C(=O)N[C@H]2CCC[C@@H]2Nc2ncc(C(F)(F)F)cc2F)n1` [Example 140, N-[(1S,2S)-2-{[3-Fluoro-5-(trifluoromethyl)pyridin-2-yl]amino}cyclopentyl]-2-(3-methyl-1,2,4-oxadiazol-5-yl)benzamide], the concentration for half-maximal inhibition (IC50) in assay [1] was 35 nM; in assay [2] it was over 10000 nM.
As to `O=C(N[C@H]1CCC[C@@H]1Nc1cc(C(F)(F)F)ccn1)c1ccccc1-n1nccn1` [Example 121, 2-(2H-1,2,3-Triazol-2-yl)-N-[(1S,2S)-2-{[4-(trifluoromethyl)pyridin-2-yl]amino}cyclopentyl]benzamide], the results for the half-maximal inhibitory concentration (IC50) in assay [1] and in assay [2] were 822 nM and over 10000 nM, respectively.
Consider `O=C(N[C@H]1CCC[C@@H]1Nc1cnc(C(F)(F)F)cn1)c1cccc(F)c1-n1nccn1` [Example 53, 3-Fluoro-2-(2H-1,2,3-triazol-2-yl)-N-[(1S,2S)-2-{[5-(trifluoromethyl)pyrazin-2-yl]amino}cyclopentyl]benzamide], for which the IC50 in assay [1] was 93 nM; in assay [2], over 10000 nM.
`O=C(N[C@H]1CCC[C@@H]1Nc1ncc(C(F)(F)F)cc1Cl)c1ncccc1-n1nccn1` [Example 122, N-[(1S,2S)-2-{[3-Chloro-5-(trifluoromethyl)pyridin-2-yl]amino}cyclopentyl]-3-(2H-1,2,3-triazol-2-yl)pyridine-2-carboxamide]: the IC50 in assay [1] is 32 nM; in assay [2], over 10000 nM.
